The test has as its target T1, His6-AspH315–758 (human aspartate/asparagine-β-hydroxylase, AspH) (Homo sapiens, UniProt Q12797).
T1 construct: N-Terminally His6-tagged human AspH315–758 (His6-AspH315–758) was produced in E. coli BL21 (DE3) cells; made in house; host or cells: E. coli BL21 (DE3), pET-28a(+) vector
T1 sequence (Q12797 315-758): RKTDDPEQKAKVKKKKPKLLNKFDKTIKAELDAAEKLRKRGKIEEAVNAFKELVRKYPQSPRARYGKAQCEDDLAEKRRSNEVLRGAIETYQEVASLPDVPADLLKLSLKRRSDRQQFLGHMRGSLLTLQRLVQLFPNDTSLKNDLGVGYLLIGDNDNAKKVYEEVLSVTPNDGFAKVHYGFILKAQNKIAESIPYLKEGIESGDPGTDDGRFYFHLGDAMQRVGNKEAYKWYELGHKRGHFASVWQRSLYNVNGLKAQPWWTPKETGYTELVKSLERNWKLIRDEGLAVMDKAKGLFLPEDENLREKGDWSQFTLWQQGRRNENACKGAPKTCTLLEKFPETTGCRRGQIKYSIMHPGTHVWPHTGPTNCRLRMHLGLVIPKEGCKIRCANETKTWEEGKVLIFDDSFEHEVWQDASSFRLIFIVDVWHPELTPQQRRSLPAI
Kind of test: SPE-MS AspH inhibition assay (LOPAC screen at fixed 20 μM and IC50 dose-response), hydroxylation of cyclic peptide hFX-CP101–119. Format: biochemical. The settings on record: for Plate 5 (% inhibition) / Plate 5 (% conversion): plate 5 (Pfitzer), test compounds at fixed 20 μM; for Plate 5 (% conversion): mean conversion DMSO 32.88; for % conversion / % inhibition: LOPAC Plate 4, compound at 20 uM.

Where [1] appears, read: LOPAC compound at fixed 20 uM, plate 1, normalised to DMSO and 2,4-PDCA controls.
[2] abbreviates: LOPAC compound at fixed 20 uM, substrate conversion, plate 1.

Broadly, the % inhibition is the relative decrease from the control value, in per cent.

Structures can show the parent of a compound that is named as a salt. Where two headings read alike, the source gives them in different places.

For the compound `OC[C@H]1O[C@H]([S-])[C@H](O)[C@@H](O)[C@@H]1O.[Au+]` [Aurothioglucose], the “Plate 3 (% conversion)” value is given as 23.41%.

For `CC(C)c1cc(C(C)C)c(CC(=O)NS(=O)(=O)Oc2c(C(C)C)cccc2C(C)C)c(C(C)C)c1` [Avasimibe], the “Plate 5 (% inhibition)” value is on record as 73.14% and the “Plate 5 (% conversion)” value is 11.42%.

In the case of `CCCCCCCCCCCCCCCCCCN(CCCCCCCCCCCCCCCCCC)CCCN(CCO)CCO` [Avridine], the “Plate 5 (% inhibition)” value stood at 10.21% and the “Plate 5 (% conversion)” value is listed as 32.84%. Further, the “% conversion” value (substrate conversion) is 28.90%.

For the compound `CNC(=O)c1ccccc1Sc1ccc2c(/C=C/c3ccccn3)n[nH]c2c1` [Axitinib], the “Plate 5 (% inhibition)” value is given as -7.77% and the “Plate 5 (% conversion)” value is listed as 38.96%.

Turning to `Cn1cnc([N+](=O)[O-])c1Sc1ncnc2nc[nH]c12` [Azathioprine], the “Plate 1 (% inhibition)” value under setting [1] is -17.98%. Under setting [2], the “Plate 1 (% conversion)” value is reported as 41.91%.

Take `O=C(O)CCCCCCCC(=O)O` [Azelaic acid]: the “Plate 1 (% inhibition)” value under setting [1] came to 11.13%. Besides, the “Plate 1 (% conversion)” value under setting [2] turned out to be 32.14%.

Regarding `CC[C@H]1OC(=O)[C@H](C)[C@@H](O[C@H]2C[C@@](C)(OC)[C@@H](O)[C@H](C)O2)[C@H](C)[C@@H](O[C@@H]2O[C@H](C)C[C@H](N(C)C)[C@H]2O)[C@](C)(O)C[C@@H](C)CN(C)[C@H](C)[C@@H](O)[C@]1(C)O` [Azithromycin dihydrate], under setting [1], the “Plate 1 (% inhibition)” value was -13.45%. Moreover, under setting [2], the “Plate 1 (% conversion)” value is listed as 40.39%.

For `CC[C@H]1OC(=O)[C@H](C)[C@@H](O[C@H]2C[C@@](C)(OC)[C@@H](O)[C@H](C)O2)[C@H](C)[C@@H](O[C@@H]2O[C@H](C)C[C@H](N(C)C)[C@H]2O)[C@](C)(O)C[C@@H](C)CN(C)[C@H](C)[C@@H](O)[C@]1(C)O` [Azithromycin], the “Plate 5 (% inhibition)” value was -3.13% and the “Plate 5 (% conversion)” value came to 37.38%.

Turning to `CCN1CCc2nc(N)oc2CC1.Cl.Cl` [B-HT 933 dihydrochloride], the “Plate 1 (% inhibition)” value under setting [1] is -9.80%. Further, the “Plate 1 (% conversion)” value under setting [2] amounted to 39.16%.

`COc1ccc(-c2cc3nccn3c(Nc3ncccc3C(N)=O)n2)cc1OC.Cl.O` [BAY 61-3606 hydrochloride hydrate]: for the setting “substrate conversion”, the “% conversion” value stood at 33.04%.

Consider `Nc1ccc(-c2ccc3ccccc3n2)cc1` [BF-170 hydrochloride], for which the “% inhibition” value is -2.46%. In addition, the “% conversion” value (substrate conversion) was 37.31%.

Consider `CC(=O)O[C@H]1Cc2ccccc2N(C(N)=O)c2ccccc21` [BIA 2-093], for which, for the setting “substrate conversion”, the “% conversion” value stood at 30.46%.

In the case of `COc1cc2nc(N3CCCN(C)CC3)nc(NC3CCN(Cc4ccccc4)CC3)c2cc1OC` [BIX 01294 trihydrochloride hydrate], the “% inhibition” value is given as -9.31%. For the same compound, the “% conversion” value (substrate conversion) is 39.65%.

Regarding `C[C@H](c1ccc(F)cc1CCCC(=O)O)N(c1cc(F)ccc1F)S(=O)(=O)c1ccc(Cl)cc1` [BMS-299897], the “% inhibition” value is -0.66%. Further, the “% conversion” value (substrate conversion) was 36.70%.

As for `COc1ccccc1N1CCN(CCN2C(=O)CC3(CCCC3)CC2=O)CC1.Cl.Cl` [BMY 7378 dihydrochloride], the “Plate 1 (% inhibition)” value under setting [1] is reported as -11.73%. Also, the “Plate 1 (% conversion)” value under setting [2] was found to be 39.81%.

With `COc1ccccc1N1CCN(CCCCNC(=O)c2ccc3ccccc3c2)CC1` [BP 897], the “Plate 1 (% inhibition)” value under setting [1] is reported as -9.00%. Further, under setting [2], the “Plate 1 (% conversion)” value is 38.89%.

For `C[C@H](Cc1ccc(OCC(=O)[O-])cc1)NC[C@H](O)c1cccc(Cl)c1.[Na+]` [BRL 37344 sodium], under setting [1], the “Plate 1 (% inhibition)” value was 4.03%. Further, under setting [2], the “Plate 1 (% conversion)” value amounted to 34.52%.

With `Cc1ccc([N+](=O)[O-])cc1S(=O)(=O)N(C)C` [BRL 50481], the “Plate 1 (% conversion)” value turned out to be 38.84% and the “Plate 1 (% inhibition)” value is -8.84%.

Turning to `CN1CCC(c2c[nH]c3ccc(O)cc23)CC1.O=C(O)/C=C\C(=O)O` [BRL 54443 maleate], the “Plate 1 (% conversion)” value is listed as 33.54% and the “Plate 1 (% inhibition)” value was 6.94%.

For the origin of these results see publication PMC7251097, “Aspartate/asparagine-β-hydroxylase: a high-throughput mass spectrometric assay for discovery of small molecule inhibitors” (Scientific Reports, 2020).
